Measurements from US8759331B2, “X-ray and gamma-photon activable organic compounds, their preparation and their uses” (Centre National de la Recherche Scientifique, priority 2010, dated 2014).
Entries after “also recorded” stand apart in the source; their conditions may differ.

What was measured:
[1] = radiolysis under X-ray irradiation (17.5 keV), followed by HPLC; assay type: physicochemical; details: soft X-ray irradiation 17.5 keV
Method: The radiolysis was followed either by the diminution of the caged compound 5, or by the increasing of the photo-products 6 and 7. […] The photo-fragmentation follows a first order kinetic with a time constant of 4.7×10^−3 min^−1.
The evolution of the radiolysis was followed by HPLC using C-18 reverse phase chromatography (XTerra, eluents: methanol/HCO2H (0.1% aq), H2O/HCO2H (0.1% aq) detection at 260 and 320 nm).

[2] = photolysis under one-photon (UV) irradiation at 366 nm, followed by HPLC/LC-MS; assay type: physicochemical; details: 366 nm UV irradiation, physiological conditions / aqueous buffer pH 7
Method: The photochemical efficiency of any chromophores is determined by the extinction coefficient (ε) and the quantum yield (Qu) that is characteristic of the observed photochemical event of the chromophore. The product of these quantities (εQu) characterizes the efficiency of the event such as fluorescence or chemical transformation, for example by the incident light.
The photolysis at 366 nm of compound 5 was monitored by the disappearance of the caged hydrocinnamate 5 and by the appearance of the compounds 6 and 7, by using liquid chromatography (LC) or liquid-chromatography-mass spectrometry (LC-MS) techniques. […] In contrast, compound 4 was inert under UV irradiation at 366 nm.
Samples were prepared in c=0.1 mM concentration in aqueous TRIS buffer (pH=7). An aliquot (1 mL) of this solution was irradiated at 366 nm (ε366=3000 M^−1·cm^−1) in a 1 mL quartz cuvette. The evolution of the photolysis was followed by HPLC using C-18 reverse phase chromatography (XTerra, eluents: methanol/HCO2H (0.1% aq), H2O/HCO2H (0.1% aq) detection at 260 and 320 nm).

Structure (SMILES)	photo-fragmentation under X-ray irradiation [1]	photolysis under near UV irradiation (366 nm) [2]
O=C(CCc1ccccc1)OCc1ccc2ccc(N3CCNCC3)cc2n1 [compound 4]	no detectable photo-fragmentation; also recorded: no traces of photo-fragmentation	inert
CC(C)(C)OC(=O)N1CCN(c2ccc3ccc(COC(=O)CCc4ccccc4)nc3c2)CC1 [compound 3]	no detectable photo-fragmentation; also recorded: no traces of photo-fragmentation	prone to photolysis
